According to ChEMBL document CHEMBL1150330, “Muscarinic antagonists with multiple stereocenters: Synthesis, affinity profile and functional activity of isomeric 1-methyl-2-(2,2-alkylaryl-1,3-oxathiolan-5-yl)pyrrolidine sulfoxide derivatives” (Bioorg Med Chem, 2008):

Key:
[1] = Antagonist activity against muscarinic M3 receptor in guinea pig ileum assessed as effect on ileum tension; assay type: functional, Cavia porcellus
[2] = Antagonist activity against muscarinic M2 receptor in guinea pig atria assessed as effect on electrically-stimulated atria; assay type: functional, Cavia porcellus
[3] = biological target: T1, Muscarinic acetylcholine receptor M5 (Homo sapiens, UniProt P08912); assay: Displacement of [3H]NMS from human muscarinic M5 receptor expressed in CHO cells; assay type: cell-based
T1 sequence (P08912 whole entry): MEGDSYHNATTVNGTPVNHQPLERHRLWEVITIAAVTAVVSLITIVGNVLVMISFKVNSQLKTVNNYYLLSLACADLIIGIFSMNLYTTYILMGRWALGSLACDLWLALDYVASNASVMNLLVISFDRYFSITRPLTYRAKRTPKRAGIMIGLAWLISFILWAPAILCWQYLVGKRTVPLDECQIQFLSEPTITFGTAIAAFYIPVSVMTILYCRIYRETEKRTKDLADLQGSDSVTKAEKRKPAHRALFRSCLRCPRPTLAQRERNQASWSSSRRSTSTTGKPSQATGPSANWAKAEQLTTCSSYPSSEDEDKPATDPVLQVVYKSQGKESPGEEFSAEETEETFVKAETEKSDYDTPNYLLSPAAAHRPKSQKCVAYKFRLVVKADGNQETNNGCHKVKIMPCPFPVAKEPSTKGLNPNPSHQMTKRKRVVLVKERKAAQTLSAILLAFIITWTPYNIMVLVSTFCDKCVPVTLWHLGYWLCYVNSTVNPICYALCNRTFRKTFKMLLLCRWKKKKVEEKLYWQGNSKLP

[4] = biological target: T2, Muscarinic acetylcholine receptor M2 (Homo sapiens, UniProt P08172); assay: Displacement of [3H]NMS from human muscarinic M2 receptor expressed in CHO cells; assay type: cell-based
T2 sequence (P08172 whole entry): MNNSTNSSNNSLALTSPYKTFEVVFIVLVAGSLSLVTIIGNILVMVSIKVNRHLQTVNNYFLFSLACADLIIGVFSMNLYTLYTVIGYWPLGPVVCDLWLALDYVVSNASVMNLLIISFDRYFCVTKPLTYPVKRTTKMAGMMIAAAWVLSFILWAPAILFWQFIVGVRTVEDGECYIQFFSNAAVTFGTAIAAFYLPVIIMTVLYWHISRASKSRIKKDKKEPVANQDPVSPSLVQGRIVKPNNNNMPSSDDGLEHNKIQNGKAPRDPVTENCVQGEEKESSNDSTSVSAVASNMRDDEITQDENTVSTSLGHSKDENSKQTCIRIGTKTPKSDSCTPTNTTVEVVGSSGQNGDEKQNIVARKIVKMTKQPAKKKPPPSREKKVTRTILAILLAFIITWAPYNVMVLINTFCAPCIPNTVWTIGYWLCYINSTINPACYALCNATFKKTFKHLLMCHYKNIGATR

[5] = biological target: T3, Muscarinic acetylcholine receptor M1 (Homo sapiens, UniProt P11229); assay: Displacement of [3H]NMS from human muscarinic M1 receptor expressed in CHO cells; assay type: cell-based
T3 sequence (P11229 whole entry): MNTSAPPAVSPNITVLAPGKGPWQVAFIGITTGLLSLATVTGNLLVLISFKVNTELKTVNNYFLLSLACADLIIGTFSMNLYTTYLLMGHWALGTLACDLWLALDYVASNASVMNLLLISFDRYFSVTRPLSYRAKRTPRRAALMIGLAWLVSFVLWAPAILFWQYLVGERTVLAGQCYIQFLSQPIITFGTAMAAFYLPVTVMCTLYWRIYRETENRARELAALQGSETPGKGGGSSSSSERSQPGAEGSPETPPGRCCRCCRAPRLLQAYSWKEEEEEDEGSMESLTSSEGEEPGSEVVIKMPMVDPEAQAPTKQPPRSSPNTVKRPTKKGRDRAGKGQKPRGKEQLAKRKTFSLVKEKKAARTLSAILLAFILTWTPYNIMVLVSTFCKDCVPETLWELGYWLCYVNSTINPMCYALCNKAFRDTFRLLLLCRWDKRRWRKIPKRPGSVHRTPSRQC

[6] = biological target: T4, Muscarinic acetylcholine receptor M4 (Homo sapiens, UniProt P08173); assay: Displacement of [3H]NMS from human muscarinic M4 receptor expressed in CHO cells; assay type: cell-based
T4 sequence (P08173 whole entry): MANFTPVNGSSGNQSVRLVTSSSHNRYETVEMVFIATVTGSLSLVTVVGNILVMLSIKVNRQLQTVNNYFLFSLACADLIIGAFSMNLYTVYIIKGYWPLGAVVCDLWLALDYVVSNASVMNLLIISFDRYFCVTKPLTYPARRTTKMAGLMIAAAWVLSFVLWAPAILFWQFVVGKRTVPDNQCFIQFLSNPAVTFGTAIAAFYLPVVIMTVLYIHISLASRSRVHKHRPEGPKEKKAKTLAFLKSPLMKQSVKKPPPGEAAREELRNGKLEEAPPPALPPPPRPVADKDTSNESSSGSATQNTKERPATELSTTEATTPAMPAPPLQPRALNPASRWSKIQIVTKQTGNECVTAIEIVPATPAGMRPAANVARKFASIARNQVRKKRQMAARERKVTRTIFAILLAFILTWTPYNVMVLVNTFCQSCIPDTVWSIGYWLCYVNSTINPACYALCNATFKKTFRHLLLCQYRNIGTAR

[7] = biological target: Muscarinic acetylcholine receptor M3 (Homo sapiens, UniProt P20309); assay: Displacement of [3H]NMS from human muscarinic M3 receptor expressed in CHO cells; assay type: cell-based
Sequence of Muscarinic acetylcholine receptor M3 (P20309 whole entry): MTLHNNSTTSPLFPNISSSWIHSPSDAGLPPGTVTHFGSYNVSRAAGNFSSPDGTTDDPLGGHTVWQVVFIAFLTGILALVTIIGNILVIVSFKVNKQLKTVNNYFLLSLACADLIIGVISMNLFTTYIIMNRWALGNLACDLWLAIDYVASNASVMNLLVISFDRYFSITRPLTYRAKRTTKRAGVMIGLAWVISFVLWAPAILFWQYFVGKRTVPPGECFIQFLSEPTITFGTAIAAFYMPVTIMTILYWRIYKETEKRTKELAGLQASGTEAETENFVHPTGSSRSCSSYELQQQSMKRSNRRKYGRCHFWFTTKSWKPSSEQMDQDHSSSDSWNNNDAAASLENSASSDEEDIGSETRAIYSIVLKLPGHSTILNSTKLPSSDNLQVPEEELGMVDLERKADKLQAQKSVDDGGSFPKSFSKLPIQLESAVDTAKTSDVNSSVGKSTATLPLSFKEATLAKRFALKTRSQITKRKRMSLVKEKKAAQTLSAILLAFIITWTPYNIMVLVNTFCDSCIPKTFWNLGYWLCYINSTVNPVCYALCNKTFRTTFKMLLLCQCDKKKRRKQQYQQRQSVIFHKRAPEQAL

[8] = Antagonist activity against muscarinic M4 receptor in guinea pig lung strip assessed as effect on electrically-stimulated contraction; assay type: functional, Cavia porcellus

Row | Ki [3] | Ki [4] | Ki [5] | Ki [6] | Ki [7] | SMILES | pKb [1] | pKb [2] | pKb [8]
1 | 23.4 nM | 70.8 nM | 12 nM | 58.9 nM | 26.9 nM | C[N+]1(C)CCC[C@H]1[C@H]1C[S+]([O-])[C@@](c2ccccc2)(C2CCCCC2)O1.[I-] (stereo in doubt; (+)-12) | 7.03 | 6.57 | 5.41
2 | 380 nM | 302 nM | 93.3 nM | 501 nM | 347 nM | CN1CCC[C@H]1[C@H]1C[S+]([O-])[C@](c2ccccc2)(C2CCCCC2)O1 (stereo in doubt; (-)-9) | 7.1 | 6.59 | 5.13
3 | 229 nM | 219 nM | 145 nM | 407 nM | 302 nM | CN1CCC[C@H]1[C@H]1C[S+]([O-])C(c2ccccc2)(c2ccccc2)O1 (stereo in doubt; (-)-5) | 6.99 | 6.42 | <5
4 | 813 nM | 195 nM | 324 nM | 1170 nM | 417 nM | C[N+]1(C)CCC[C@@H]1[C@@H]1C[S+]([O-])C(c2ccccc2)(c2ccccc2)O1.[I-] (stereo in doubt; (+)-11) | 7.62 | 7 | 5.25
5 | 182 nM | 69.2 nM | 53.7 nM | 282 nM | 263 nM | C[N+]1(C)CCC[C@@H]1[C@@H]1C[S+]([O-])C(c2ccccc2)(c2ccccc2)O1.[I-] (stereo in doubt; (-)-10) | 7.5 | 7.3 | 6.53
